Key:
RGC-5 cells [1] = assay: H2O2-induced RGC-5 cell oxidative stress injury model, CCK-8 cell viability; assay type: cell-based
Description: (§1) The cell viability was used as an index in the experiment of this embodiment.
RGC-5 cells in logarithmic growth phase were diluted with complete medium (MEM+10% FBS+1% penicillin-streptomycin) to get a cell suspension in a density of 5×10^4/mL. The suspension was inoculated 100 μL per well into a 96-well plate, and cultivated in an incubator with 5% CO2 at 37° C. One of administration ways in an experiment group is: The original culture medium was removed when the cells attached to the wells, and 50 μL test substances (the test substances were: three kinds of L-NIBC-modified AuCs in particle sizes of 2.6 nm, 1.8 nm or 1.1 nm, or four kinds of L-NIBC-modified gold nanoparticles in particle sizes of 18.2 nm, 10.1 nm, 6.0 nm or 3.6 nm, or L-NIBC molecules not bonded with AuCs or gold nanoparticles as reference) solutions at different concentrations prepared by maintenance medium (DMEM medium+2% FBS+1% penicillin-streptomycin) were added to different wells to make the final concentration be 0.01, 0.05, 0.1, 0.5, 1, 5 and 10 ppm respectively, then 50 μL of H2O2 (the final concentration was 100 μM) was added to the administration group and model group after 2 hours' pretreatment. The cells were incubated for 24 h, then 10% CCK-8 was added to each well and incubated for 4 h. […]

Aβ(1-40) [2] = target: T1, Aβ(1-40) (Homo sapiens, UniProt P05067); assay: In vitro Aβ(1-40) aggregation kinetics, ThT fluorescent labeling method; assay type: biochemical; conditions: 20 μM Aβ(1-40); L-NIBC 1.0 and 10.0 ppm; gold nanoparticles up to 20.0 ppm
T1 construct: Freeze-dried powder of amyloid polypeptide Aβ(1-40) (Invitrogen Corp.); purchased Invitrogen Corp
T1 sequence (P05067 672-711 limits assumed): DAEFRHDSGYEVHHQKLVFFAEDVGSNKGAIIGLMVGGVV
From the text: As described above, Aβ plays an important role in the pathogenesis of glaucoma and is an important target for treatment of glaucoma based on the optic nerve protection mechanism. […] Moreover, the function is from AuCs other than ligand. […] Thioflavin T (abbreviation: ThT) is a dye specifically for dyeing amyloid fibers. […] When it encounters amyloid polypeptides or proteins with a fiber structure, it will immediately couple with the amyloid polypeptides or proteins and its fluorescence intensity will increase exponentially. Just because of this property, ThT is widely used as a marker to monitor amyloidosis of peptides or proteins. The fibrosis process of Aβ(1-40) is also a nucleation-controlled polymerization process. Therefore, the growth curve of Aβ(1-40) fiber measured by ThT fluorescent labeling method is mainly divided into three stages: Initial stage, growth stage and platform stage. The initial stage is mainly a stage when Aβ(1-40) undergoes conformational transition to form misfolding and then aggregates and nucleates. […] All the Aβ(1-40) PBS solutions for the experiments were prepared freshly. […] The samples were incubated continuously in a 96-well plate at 37° C. by ThT fluorescent labeling method, and monitored the fluorescence intensity by microplate reader once every 10 minutes.

RGC-5 cells [3] = assay: Sodium nitroprusside (SNP)-induced RGC-5 apoptosis model, CCK-8 cell viability; assay type: cell-based
Description: as §1
RGC-5 cells in logarithmic growth phase were diluted with complete medium to get a cell suspension in a density of 5×10^4/mL. The suspension was inoculated 100 μL per well into a 96-well plate, and cultivated in an incubator with 5% CO2 at 37° C. […] The absorbance value of each well at 450 nm wave length was measured to evaluate the pre-protective effect of AuCs on SNP injury. […] The absorbance value of each well at 450 nm wave length was measured to evaluate the curative effect of AuCs on SNP injury. […]
RGC-5 cells in logarithmic growth phase were diluted with complete medium to get a cell suspension in a density of 5×10^4/mL. […] The absorbance value of each well at 450 nm wave length was measured to evaluate the pre-protective effect of AuCs on SNP injury. […]

Aβ(1-40) [4] = target: T1, Aβ(1-40); assay: AFM topography of Aβ(1-40) after 48 h co-incubation; assay type: biochemical; conditions: co-incubated for 48 h
Description: Panel A is the AFM topography after Aβ(1-40) was incubated alone for 48 h. Panel B is an AFM topography after Aβ(1-40) was coincubated with L-NIBC for 48 h. Panel C and panel D are AFM topographies after Aβ(1-40) was coincubated with gold nanoparticles with an average particle size of 6.0 nm and 3.6 nm respectively (modified with L-NIBC) for 48 h. And panel E is an AFM topography after Aβ(1-40) was coincubated with AuCs in an average particle size of 1.8 nm (modified with L-NIBC) for 48 h.

RGC-5 cells [5] = assay: NMDA-induced RGC-5 cell excitotoxicity model, CCK-8; assay type: cell-based; conditions: 250 μM NMDA, 0.01-10 ppm
Description: This embodiment used cell survival rate as an index.
RGC-5 cells in logarithmic growth phase were diluted with complete medium to get a cell suspension in a density of 5×10^4/mL. The suspension was inoculated 100 μL per well into a 96-well plate, and cultivated in an incubator with 5% CO2 at 37° C. One of administration ways in an experiment group is: The original culture medium was removed when the cells attached to the wells, and 50 μL test substances (the test substances were: three kinds of L-NIBC-modified AuCs in particle sizes of 2.6 nm, 1.8 nm or 1.1 nm, or four kinds of L-NIBC-modified gold nanoparticles in particle sizes of 18.2 nm, 10.1 nm, 6.0 nm or 3.6 nm, or L-NIBC molecules not bonded with AuCs or gold nanoparticles as reference) solutions at different concentrations prepared by maintenance medium were added to different wells to make the final concentration be 0.01, 0.05, 0.1, 0.5, 1, 5 and 10 ppm respectively, then 50 μL of NMDA (the final concentration was 250 μM) was added to the administration group and model group after 2 hours' pretreatment. […] The absorbance value of each well at 450 nm wave length was measured to evaluate the pre-protective effect of AuCs on NMDA injury. […] The absorbance value of each well at 450 nm wave length was measured to evaluate the curative effect of AuCs on NMDA injury. […]

CC(C)C(=O)N[C@@H](CS)C(=O)O [L-NIBC, N-isobutyryl-L-cysteine]
effect on cell viability / RGC apoptosis triggered by oxidative stress (RGC-5 cells [1]; H2O2-injured RGC cell model, CCK-8): did not have an obvious effect
viability at 10 ppm (RGC-5 cells [1]; RGC5, 10 ppm, H2O2, 24 h, read-out: cell viability relative to the blank control group (set to be 100%)): 47.5 ± 6.6%
effect on Aβ(1-40) amyloidosis kinetics (Aβ(1-40) [2]): no obvious effect on Aβ(1-40) amyloidosis kinetics
viability at 10 ppm (RGC-5 cells [3]; RGC5, 10 ppm, 700 μM SNP, 24 h, read-out: cell viability relative to the blank control group (set to be 100%)): 52.8 ± 8%
effect on cell viability / SNP-induced RGC apoptosis (RGC-5 cells [3]; SNP-injured RGC cell model, CCK-8): did not have an obvious protective effect
Aβ(1-40) fibers in AFM topography (Aβ(1-40) [4]): no obvious effect on the formation of Aβ(1-40) fibers
effect on cell viability / neurotransmitter mediated excitatory RGC apoptosis (RGC-5 cells [5]): did not have an obvious effect
